Molecular target: SspH1 (161–700) (Salmonella typhimurium, UniProt D0ZVG2)
Experiment: Round 1 intact protein LC-MS covalent fragment labelling screen and dilution series
Format: binding
Set-up: Recombinant IpaH9.8 (21–545) and SspH1 (161–700) were incubated at 0.5 μM; His-tag (N, cleaved yes); made in house; host or cells: E. coli BL21
Conditions: 24 hours at 4 °C
Experimental: A diverse library of 227 compounds with chloroacetamide warheads, featuring a diversity of molecular weight (162–321 Da) and clog P (−1.4 to 3.4) (Table S1), were screened against Salmonella and Shigella NEL E3 ligases using our intact protein liquid chromatography mass spectrometry (LC-MS) platform as previously described.[39,40] Briefly, recombinant SspH1 (161–700[30]) and IpaH9.8 (21–545[29]) (Fig. 1A and B) were incubated with 50 μM fragments for 24 hours at 4 °C before analysis by LC-MS (Fig. 1C). Raw counts were deconvoluted and the labelling percentage calculated by detection and comparison of protein and protein-fragment molecular weights.
Fig. 1 Intact protein LCMS screening of covalent fragment library against NEL proteins. (A) Cartoon depicting conserved NEL E3 ligase domains; (B) overlaid structures of SspH1 (blue, PDB 9H6W[30]) and IpaH9.8 (green, PDB 6LOL[29]) aligned on NEL domain; (C) workflow of covalent fragment screening using intact LC-MS; (D) fragment labelling percentages for SspH1 and IpaH9.8 with fragments 1–3 highlighted. Recombinant IpaH9.8 (21–545) and SspH1 (161–700) were incubated at 0.5 μM with 50 μM fragments for 24 hours at 4 °C, before fragment labelling was analysed by intact LC-MS; (E) chemical structures of fragments 1–3.
We next analysed the potency of compounds 4–10 against SspH1. The seven compounds were obtained as purified compounds (Table S2) and screened against SspH1 by intact LC-MS (Fig. 3A) with two-fold serial dilution (100–6.25 μM). To confirm which of the two cysteines in the SspH1 161–700 construct were labelled, we repeated the concentration response experiment with a catalytic cysteine mutant of SspH1 (C492K) (Fig. 3B). The complete abrogation of labelling confirmed that all […] compounds labelled the catalytic cysteine of SspH1.
1 μM IpaH9.8 or SspH1 were incubated with […] fragments for 24 hours at 4 °C, in 25 mM HEPES pH 7.5, 50 mM NaCl buffer. Intact protein LC-MS was performed as previously described.[40] The following deconvolution conditions were used for recombinant proteins studied in this work:
Dilution series experiments were performed as for 1st round screening. 1 μM OTUD4, OTUD5 or 0.5 μM HOIL, UbcH5A, SspH2, SspH1 C492K were incubated with 100–6.25 μM compounds for 24 hours at 4 °C, in 25 mM HEPES pH 7.5, 50 mM NaCl buffer. Intact protein LC-MS was performed as previously described.[40] The following deconvolution conditions were used for recombinant proteins studied in this work: […]

Chain of SspH1 (161–700) (D0ZVG2 161-700): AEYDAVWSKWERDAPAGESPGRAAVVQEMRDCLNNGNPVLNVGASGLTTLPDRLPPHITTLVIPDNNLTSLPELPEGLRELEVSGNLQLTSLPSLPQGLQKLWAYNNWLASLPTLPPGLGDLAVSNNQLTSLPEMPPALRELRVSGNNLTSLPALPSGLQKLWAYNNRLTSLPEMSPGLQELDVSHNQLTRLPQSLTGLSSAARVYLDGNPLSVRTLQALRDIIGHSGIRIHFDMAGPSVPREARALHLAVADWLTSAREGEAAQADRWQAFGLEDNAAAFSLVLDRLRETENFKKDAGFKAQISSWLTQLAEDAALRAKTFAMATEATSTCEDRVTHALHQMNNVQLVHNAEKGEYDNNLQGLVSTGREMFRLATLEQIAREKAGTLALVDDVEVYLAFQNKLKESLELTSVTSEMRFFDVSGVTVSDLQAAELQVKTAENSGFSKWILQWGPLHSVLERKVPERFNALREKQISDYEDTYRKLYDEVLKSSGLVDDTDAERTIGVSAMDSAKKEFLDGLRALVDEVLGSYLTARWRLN

SMILES	labelling of WT SspH1 (purified compound at 6.25 μM) [%]	labelling of WT SspH1 (purified compound at 12.5 μM) [%]
Cc1cc(-c2nc3ccccc3n2C2CCN(C(=O)CCl)CC2)cc(C)c1O.Cl [compound 6]	> 60	> 80
Cl.O=C(CCl)N1CCC(n2c(-c3ccc(C(F)(F)F)cc3)nc3ccccc32)CC1 [compound 7]	> 60	> 80
